The record followed here is paper PMC5573764, “Enzymatic characterization of a recombinant carbonyl reductase from Acetobacter sp. CCTCC M209061” (Bioresources and Bioprocessing, 2017).

Common to all, as to format: biochemical, Acetobacter sp. CCTCC M209061
The target in assay [1] is T1, AcCR (recombinant carbonyl reductase; GAcCR) (Acetobacter sp., UniProt A0A2S1GUX7).
T1 construct: N-terminal GST fusion from pGEX-2T, tag kept, about 53 kDa on SDS-PAGE; E. coli BL21(DE3)pLysS
Put plainly: NADH absorbance at […] nm, initial rates. As to conditions: pH 6.5, 35 °C (optimum conditions), GST-tagged enzyme.

Assay [2] has as its target T1, AcCR (recombinant carbonyl reductase; GAcCR). As to the kind of experiment: NADH formation at […] nm, initial rates. To be noted: 45 °C, optimum conditions (pH 8.0 in assay method, optimum 8.5), GST-tagged enzyme.
Assay [3] shares this target. Put plainly: NADPH formation at […] nm, initial rates. As to conditions: oxidation of isopropanol; 45 °C; optimum conditions (pH 8.0 in assay method); GST-tagged enzyme.

Broadly, the Km is the concentration of substrate that gives half-maximal velocity.

T1 sequence (A0A2S1GUX7 1-253): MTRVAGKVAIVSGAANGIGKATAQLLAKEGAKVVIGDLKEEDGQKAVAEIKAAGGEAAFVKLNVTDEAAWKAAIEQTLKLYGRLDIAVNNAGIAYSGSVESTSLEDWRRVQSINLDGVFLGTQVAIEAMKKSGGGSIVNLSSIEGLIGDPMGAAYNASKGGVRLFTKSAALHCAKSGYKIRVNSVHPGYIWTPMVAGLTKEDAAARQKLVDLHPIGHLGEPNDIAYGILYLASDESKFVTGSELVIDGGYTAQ

Take `NC(=O)C1=CN([C@@H]2O[C@H](COP(=O)(O)OP(=O)(O)OC[C@H]3O[C@@H](n4cnc5c(N)ncnc54)[C@H](O)[C@@H]3O)[C@@H](O)[C@H]2O)C=CC1` [NADH]: the Km in assay [1] (reduction of 4'-chloroacetophenone) was determined as 160 µM. Consider `NC(=O)c1ccc[n+]([C@@H]2O[C@H](COP(=O)(O)OP(=O)(O)OC[C@H]3O[C@@H](n4cnc5c(N)ncnc54)[C@H](O)[C@@H]3O)[C@@H](O)[C@H]2O)c1` [NAD^+], for which the Km in assay [2] (oxidation of isopropanol) was 380 µM.

With `CC(C)O` [Isopropanol], the Km in assay [2] (co-substrate NAD+) was found to be 23800 µM. With `NC(=O)c1ccc[n+]([C@@H]2O[C@H](COP(=O)(O)OP(=O)(O)OC[C@H]3O[C@@H](n4cnc5c(N)ncnc54)[C@H](OP(=O)(O)O)[C@@H]3O)[C@@H](O)[C@H]2O)c1` [NADP^+], the Km in assay [3] amounted to 1390 µM. Turning to `CC(=O)c1ccc(Cl)cc1` [4′-Chloroacetophenone], the Km in assay [1] (co-substrate NADH) was determined as 260 µM.
